Reference: US10301267B2, “Compounds” (AstraZeneca AB, priority 2006, dated 2019)

Each compound was assayed against FGFR1 active kinase (Homo sapiens, UniProt P11362) (assay: FGFR Kinase assay - Caliper Echo Dosing). Details: FGFR1 7.2 nM, 408 uM ATP, acoustic dosing; geometric mean of n.
Type: biochemical
Protocol: FGFR Kinase Assay—Caliper Echo Dosing
To determine inhibition of FGFR activity, kinase assays were conducted using Caliper technology.
Kinase activity assays were performed in Greiner 384-well low volume plates, with a total reaction volume of 12 ul per well. Final concentration of FGFR1 active kinase in each reaction well was 7.2 nM. The substrate for each assay was a custom peptide with fluorescent tag (13 amino acids in length, […] with the fluorescene tag on the first K).
Compounds were dispensed directly in to assay plates using a Labcyte Echo 550 acoustic droplet ejection unit. Each well received 120 nl of DMSO containing compound such that the final concentration of compound in the assay prior to the addition of the stop solution ranged between 30 uM and 30 pM. In addition to compounds each plate carried maximum and minimum control wells, the max wells contained 120 nl of DMSO and the min wells contained 120 nl of 10 mM staurosporine (LC Laboratories, MA 01801, USA Catalogue No. S-9300). The Enzyme (at 7.2 nM [final]) and Substrate (at 3.6 uM [final]) were added separately to the compound plates, in reaction buffer [comprising: 50 mM MOPS (Sigma, Catalogue No. M1254)—pH 6.5, 0.004% Triton (Sigma, Catalogue No. X-100), 2.4 mM DTT, 12 mM MgCl2, 408 uM ATP] resulting in a final DMSO concentration in the reaction mix of 1%.
Assay plates were incubated at room temperature for 1.5 h, before the reaction was stopped with the addition of buffer [comprising: 100 mM HEPES—pH7.5, 0.033% Brij-35 (Sigma Catalogue No. B4184), 0.22% Caliper Coating Reagent #3 (Caliper Life Sciences Catalogue No. 760050), 88 mM EDTA, 5% DMSO]. Stopped assay plates were then read using the Caliper LabChip® LC3000 (which uses microfludics to measure a shift in mobility between fluorescent labelled peptide and the FGFR1 kinase—phosphorylated form of this peptide).
In the assay, compounds were tested at a range of concentrations. […] Percentage inhibition at 1 uM, as expressed herein, is a calculated value based on the curve fit that was generated experimentally. From the fitted curve plot, the effect of compound at a concentration of 1 uM was calculated as a percentage inhibition. The IC50 is the concentration of compound, which inhibits FGFR1 kinase activity by 50% in the context of this assay. This value is calculated using a standard curve fitting software package Origin™.

Sequence of FGFR1 active kinase (P11362 22-822): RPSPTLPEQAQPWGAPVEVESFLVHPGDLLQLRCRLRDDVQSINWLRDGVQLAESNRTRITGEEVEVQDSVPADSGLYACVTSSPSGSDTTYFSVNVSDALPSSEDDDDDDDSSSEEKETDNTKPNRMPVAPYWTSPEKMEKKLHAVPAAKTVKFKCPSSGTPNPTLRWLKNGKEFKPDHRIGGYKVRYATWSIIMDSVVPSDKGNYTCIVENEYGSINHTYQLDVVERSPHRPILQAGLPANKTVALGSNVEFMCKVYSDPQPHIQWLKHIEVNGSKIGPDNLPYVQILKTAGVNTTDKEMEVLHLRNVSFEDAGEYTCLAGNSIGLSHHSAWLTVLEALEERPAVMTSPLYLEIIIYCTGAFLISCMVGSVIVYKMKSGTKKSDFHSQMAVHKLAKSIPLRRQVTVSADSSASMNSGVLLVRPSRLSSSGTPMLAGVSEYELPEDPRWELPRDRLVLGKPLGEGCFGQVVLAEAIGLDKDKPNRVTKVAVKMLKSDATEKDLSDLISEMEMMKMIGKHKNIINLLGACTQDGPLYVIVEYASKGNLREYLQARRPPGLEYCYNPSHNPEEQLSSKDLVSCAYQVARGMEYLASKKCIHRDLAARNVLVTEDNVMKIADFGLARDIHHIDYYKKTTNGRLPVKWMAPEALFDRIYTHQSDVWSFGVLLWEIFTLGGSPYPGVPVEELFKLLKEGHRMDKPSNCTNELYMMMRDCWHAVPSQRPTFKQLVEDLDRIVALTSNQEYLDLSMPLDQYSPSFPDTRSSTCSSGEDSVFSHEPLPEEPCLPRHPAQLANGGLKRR

| Compound | IC50 |
| --- | --- |
| COc1cc(COc2cc(NC(=O)c3cnc(N4CCN5CCCC5C4)cn3)[nH]n2)cc(OC)c1 (stereo not drawn) [Example 122, 5-(3,4,6,7,8,8a-Hexahydro-1H-pyrrolo[2,1-c]pyrazin-2-yl)-N-[5-[(3,5-dimethoxyphenyl)methoxy]-2H-pyrazol-3-yl]pyrazine-2-carboxamide] | 1.3 nM |
| COc1cc(CCc2cc(NC(=O)c3cnc(N4CCN(C)C(C)C4)cn3)[nH]n2)cc(OC)c1 (stereo not drawn) [Example 123, N-[5-[2-(3,5-Dimethoxyphenyl)ethyl]-2H-pyrazol-3-yl]-5-(3,4-dimethylpiperazin-1-yl)pyrazine-2-carboxamide] | 2.2 nM |
| COc1cc(COc2cc(NC(=O)c3cnc(N4CCN(C)C(C)C4)cn3)[nH]n2)cc(OC)c1 (stereo not drawn) [Example 124, N-[5-[(3,5-Dimethoxyphenyl)methoxy]-2H-pyrazol-3-yl]-5-(3,4-dimethylpiperazin-1-yl)pyrazine-2-carboxamide] | 1.5 nM |
| COc1cc(CCc2cc(NC(=O)c3cnc(N4C[C@@H](C)N(C)[C@@H](C)C4)cn3)[nH]n2)cc(OC)c1 [Example 125, N-[5-[2-(3,5-dimethoxyphenyl)ethyl]-2H-pyrazol-3-yl]-5-[(3R,5S)-3,4,5-trimethylpiperazin-1-yl]pyrazine-2-carboxamide] | 1.7 nM |
| COc1cc(CCc2cc(NC(=O)c3cnc(N4CCN(C5CC5)CC4)nc3)[nH]n2)cc(OC)c1 [Example 126, 2-(4-cyclopropylpiperazin-1-yl)-N-[5-[2-(3,5-dimethoxyphenyl)ethyl]-2H-pyrazol-3-yl]pyrimidine-5-carboxamide] | 3.6 nM |
| COc1cc(CCc2cc(NC(=O)c3cnc(N4CCN5CCCCC5C4)nc3)[nH]n2)cc(OC)c1 (stereo not drawn) [Example 127, 2-(1,3,4,6,7,8,9,9a-octahydropyrido[2,1-c]pyrazin-2-yl)-N-[5-[2-(3,5-dimethoxyphenyl)ethyl]-2H-pyrazol-3-yl]pyrimidine-5-carboxamide] | 2.9 nM |
| COc1cc(CCc2cc(NC(=O)c3cnc(N4CCN5CCCC5C4)nc3)[nH]n2)cc(OC)c1 (stereo not drawn) [Example 128, 2-(3,4,6,7,8,8a-hexahydro-1H-pyrrolo[2,1-c]pyrazin-2-yl)-N-[5-[2-(3,5-dimethoxyphenyl)ethyl]-2H-pyrazol-3-yl]pyrimidine-5-carboxamide] | 3 nM |
| COc1cc(CCc2cc(NC(=O)c3cnc(N4C[C@@H](C)N(CC#N)[C@@H](C)C4)cn3)[nH]n2)cc(OC)c1 [Example 129, 5-[(3R,5S)-4-(cyanomethyl)-3,5-dimethylpiperazin-1-yl]-N-[5-[2-(3,5-dimethoxyphenyl)ethyl]-2H-pyrazol-3-yl]pyrazine-2-carboxamide] | 3.5 nM |
| COc1cc(COc2cc(NC(=O)c3cnc(N4C[C@@H](C)N(C)[C@@H](C)C4)cn3)[nH]n2)cc(OC)c1 [Example 130, N-[5-[(3,5-dimethoxyphenyl)methoxy]-2H-pyrazol-3-yl]-5-[(3R,5S)-3,4,5-trimethylpiperazin-1-yl]pyrazine-2-carboxamide] | 0.59 nM |
| COc1cc(COc2cc(NC(=O)c3cnc(N4C[C@@H](C)N(CC#N)[C@@H](C)C4)cn3)[nH]n2)cc(OC)c1 [Example 131, 5-[(3R,5S)-4-(cyanomethyl)-3,5-dimethylpiperazin-1-yl]-N-[5-[(3,5-dimethoxyphenyl)methoxy]-2H-pyrazol-3-yl]pyrazine-2-carboxamide] | 3.5 nM |
| COc1cc(COc2cc(NC(=O)c3cnc(N4CCN(C)C(C)C4)nc3)[nH]n2)cc(OC)c1 (stereo not drawn) [Example 132, N-[5-[(3,5-dimethoxyphenyl)methoxy]-2H-pyrazol-3-yl]-2-(3,4-dimethylpiperazin-1-yl)pyrimidine-5-carboxamide] | 3.6 nM |
| COc1cc(COc2cc(NC(=O)c3cnc(N4CCN(C5CC5)CC4)nc3)[nH]n2)cc(OC)c1 [Example 133, 2-(4-cyclopropylpiperazin-1-yl)-N-[5-[(3,5-dimethoxyphenyl)methoxy]-2H-pyrazol-3-yl]pyrimidine-5-carboxamide] | 3.9 nM |
| COc1cc(CCc2cc(NC(=O)c3cnc(N4C[C@@H](C)N(C)[C@@H](C)C4)nc3)[nH]n2)cc(OC)c1 [Example 136, N-[5-[2-(3,5-dimethoxyphenyl)ethyl]-2H-pyrazol-3-yl]-2-[(3R,5S)-3,4,5-trimethylpiperazin-1-yl]pyrimidine-5-carboxamide] | 1.9 nM |
| COc1cc(CCc2cc(NC(=O)c3ccc(N4CCN(C(C)CO)CC4)cc3)[nH]n2)cc(OC)c1 (stereo not drawn) [Example 137, N-[5-[2-(3,5-dimethoxyphenyl)ethyl]-2H-pyrazol-3-yl]-4-[4-(1-hydroxypropan-2-yl)piperazin-1-yl]benzamide] | 0.57 nM |
| COc1cc(COc2cc(NC(=O)c3cnc(N4C[C@@H](C)N(C)[C@@H](C)C4)nc3)[nH]n2)cc(OC)c1 [Example 138, N-(3-(3,5-dimethoxybenzyloxy)-1H-pyrazol-5-yl)-2-((3R,5S)-3,4,5-trimethylpiperazin-1-yl)pyrimidine-5-carboxamide] | 2.6 nM |
| COc1cc(COc2cc(NC(=O)c3ccc(N4CCNC(C)(C)C4)s3)[nH]n2)cc(OC)c1 [Example 140, N-[5-[(3,5-dimethoxyphenyl)methoxy]-2H-pyrazol-3-yl]-5-(3,3-dimethylpiperazin-1-yl)thiophene-2-carboxamide] | 0.98 nM |
| CCN1CCN(c2ncc(C(=O)Nc3cc(CCc4cc(OC)cc(OC)c4)n[nH]3)cn2)CC1C (stereo not drawn) [Example 143, N-[5-[2-(3,5-dimethoxyphenyl)ethyl]-2H-pyrazol-3-yl]-2-(4-ethyl-3-methylpiperazin-1-yl)pyrimidine-5-carboxamide] | 2.7 nM |
| C=CCN1CCC(c2ccc(C(=O)Nc3cc(CCc4cc(OC)cc(OC)c4)n[nH]3)cc2)CC1 [Example 144, N-[5-[2-(3,5-dimethoxyphenyl)ethyl]-2H-pyrazol-3-yl]-4-(1-prop-2-enylpiperidin-4-yl)benzamide] | 0.041 nM |
| COc1cc(COc2cc(NC(=O)c3ccc(N4C[C@@H](C)N[C@@H](C)C4)s3)[nH]n2)cc(OC)c1 [Example 147, N-[5-[(3,5-dimethoxyphenyl)methoxy]-2H-pyrazol-3-yl]-5-[(3S,5R)-3,5-dimethylpiperazin-1-yl]thiophene-2-carboxamide] | 1.8 nM |

Continued, values first:

| IC50 | Compound |
| --- | --- |
| 0.79 nM | COc1cc(COc2cc(NC(=O)c3ccc(N4CCN5CCCC5C4)s3)[nH]n2)cc(OC)c1 (stereo not drawn) [Example 121, 5-(3,4,6,7,8,8a-hexahydro-1H-pyrrolo[2,1-c]pyrazin-2-yl)-N-[5-[(3,5-dimethoxyphenyl)methoxy]-2H-pyrazol-3-yl]thiophene-2-carboxamide] |
| 2.4 nM | COc1cc(COc2cc(NC(=O)c3cnc(N4CCN5CCCC5C4)nc3)[nH]n2)cc(OC)c1 (stereo not drawn) [Example 134, 2-(3,4,6,7,8,8a-hexahydro-1H-pyrrolo[2,1-c]pyrazin-2-yl)-N-[5-[(3,5-dimethoxyphenyl)methoxy]-2H-pyrazol-3-yl]pyrimidine-5-carboxamide] |
| 2.6 nM | COc1cc(CCc2cc(NC(=O)c3cnc(N4CCN(C)C(C)C4)nc3)[nH]n2)cc(OC)c1 (stereo not drawn) [Example 135, N-[5-[2-(3,5-dimethoxyphenyl)ethyl]-2H-pyrazol-3-yl]-2-(3,4-dimethylpiperazin-1-yl)pyrimidine-5-carboxamide] |
| 0.47 nM | COc1cc(CCc2cc(NC(=O)c3ccc(N4CCNC(C)(C)C4)cc3)[nH]n2)cc(OC)c1 [Example 139, N-[5-[2-(3,5-dimethoxyphenyl)ethyl]-2H-pyrazol-3-yl]-4-(3,3-dimethylpiperazin-1-yl)benzamide] |
| 0.86 nM | CCN1CCN(c2ccc(C(=O)Nc3cc(OCc4cc(OC)cc(OC)c4)n[nH]3)s2)CC1 [Example 141, N-[5-[(3,5-dimethoxyphenyl)methoxy]-2H-pyrazol-3-yl]-5-(4-ethylpiperazin-1-yl)thiophene-2-carboxamide] |
| 2.1 nM | COc1cc(CCc2cc(NC(=O)c3ccc(N4CCCN(C)CC4)s3)[nH]n2)cc(OC)c1 [Example 142, N-[5-[2-(3,5-dimethoxyphenyl)ethyl]-2H-pyrazol-3-yl]-5-(4-methyl-1,4-diazepan-1-yl)thiophene-2-carboxamide] |
| 0.7 nM | COc1cc(CCc2cc(NC(=O)c3ccc(N4CCCNCC4)cc3)[nH]n2)cc(OC)c1 [Example 145, 4-(1,4-diazepan-1-yl)-N-[5-[2-(3,5-dimethoxyphenyl)ethyl]-2H-pyrazol-3-yl]benzamide] |
| 1.1 nM | C#CCN1CCC(c2ccc(C(=O)Nc3cc(CCc4cc(OC)cc(OC)c4)n[nH]3)cc2)CC1 [Example 146, N-[5-[2-(3,5-dimethoxyphenyl)ethyl]-2H-pyrazol-3-yl]-4-(1-prop-2-ynylpiperidin-4-yl)benzamide] |
